Several values for one entry are separate records, joined by “and”; a condition that tells them apart may be missing. Equal entries are not always repeated. Where two headings read alike, the source gives them in different places.
Tested on: AsPC-1 cells
Assay: Cell proliferation assay, chemodrug + ATR inhibitor (Incucyte confluence, 72 h);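 further: underlying read-out for every value is AsPC-1 confluence after 72 h incubation at 37 °C and 5% CO2, divided by that well's starting confluence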
Details: for Curve slope / Curve bottom / Curve top: fitted dose-response curve; for Curve bottom / Curve top: relative response; for AsPC-1 viability (ratio) / AsPC-1 viability mean (ratio) / Raw data (confluence at 72 h/confluence at 0 h): Gartisertib experiment; for EC50: Homo sapiens, ASPC1, 72 h
[1] = AsPC1, Experiment ATRi (ATR inhibitor alone)
[2] = AsPC1, Experiment GEM+ATRi_dose1
[3] = AsPC1, Experiment GEM+ATRi_dose2
[4] = AsPC1, Experiment GEM+ATRi_dose3
[5] = replicate R1, titrated drug dose 3 nM
[6] = replicate R1, titrated drug dose 10 nM
[7] = replicate R1, titrated drug dose 30 nM
[8] = replicate R1, titrated drug dose 100 nM
[9] = replicate R1, titrated drug dose 300 nM
[10] = replicate R1, titrated drug dose 1000 nM
[11] = replicate R1, titrated drug dose 3000 nM
[12] = replicate R1, titrated drug dose 10000 nM
[13] = replicate R2, titrated drug dose 3 nM
[14] = replicate R2, titrated drug dose 10 nM
[15] = replicate R2, titrated drug dose 30 nM
[16] = replicate R2, titrated drug dose 100 nM
[17] = replicate R2, titrated drug dose 300 nM
[18] = replicate R2, titrated drug dose 1000 nM
[19] = replicate R2, titrated drug dose 3000 nM
[20] = replicate R2, titrated drug dose 10000 nM
[21] = replicate R3, titrated drug dose 3 nM
[22] = replicate R3, titrated drug dose 10 nM
[23] = replicate R3, titrated drug dose 30 nM
[24] = replicate R3, titrated drug dose 100 nM
[25] = replicate R3, titrated drug dose 300 nM
[26] = replicate R3, titrated drug dose 1000 nM
[27] = replicate R3, titrated drug dose 3000 nM
[28] = replicate R3, titrated drug dose 10000 nM

Protocol: Cells were seeded at 5000 cells/well into 96-well flat bottom plates (Eppendorf) and allowed to attach overnight. […] Cells were incubated for 72 h at 37 °C and 5% CO2. Cell confluence readouts at 72 h were either normalized to their initial confluence using the Incucyte software (AsPC-1) or used without prior normalization (all others). […] Each experiment was performed in triplicates, the data was plotted as mean ± standard deviation (s.d.).

Nc1nn2cc(F)cnc2c1C(=O)Nc1cncc(F)c1N1CCC(C(=O)N2CCN(C3COC3)CC2)CC1 [Gartisertib]
Curve slope [1]: 1.84 and 2.11 and 1.85
Curve bottom [1]: 0.97 and 0.99 and 1.02
Curve top [1]: 0.32 and 0.29 and 0.28
Curve slope [2]: 1.70 and 3.25 and 2.63
Curve bottom [2]: 0.97 and 0.89 and 0.93
Curve top [2]: 0.47 and 0.39
Curve slope [3]: 1.86 and 2.66 and 1.99
Curve bottom [3]: 1.01 and 0.93 and 0.97
Curve top [3]: 0.45 and 0.36
Curve bottom [4]: 0.93 and 0.90 and 0.88
Curve top [4]: 0.47 and 0.36
Response (GEM 0 nM, ATRi 3 nM): 2.96 and 3.43 and 3.57
Response (GEM 0 nM, ATRi 10 nM): 3.28 and 3.77 and 3.92
Response (GEM 0 nM, ATRi 30 nM): 3.05 and 3.68
Response (GEM 1 nM + ATRi 3 nM): 3.14 and 3.82 and 3.86
Response (GEM 1 nM + ATRi 10 nM): 3.23 and 3.93 and 3.90
Response (GEM 1 nM + ATRi 30 nM): 2.84 and 3.74
Response (GEM 3 nM + ATRi 3 nM): 3.14 and 3.83 and 3.74
Response (GEM 3 nM + ATRi 10 nM): 3.01 and 3.70 and 3.66
Response (GEM 3 nM + ATRi 30 nM): 3.03 and 3.39
Response (GEM 10 nM + ATRi 3 nM): 2.77 and 3.58 and 3.45
Response (GEM 10 nM + ATRi 10 nM): 2.54 and 2.78 and 2.71
Response (GEM 10 nM + ATRi 30 nM): 1.88 and 1.90 and 1.98
Response (GEM 30 nM + ATRi 3 nM): 2.10 and 2.28 and 2.14
Response (GEM 30 nM + ATRi 10 nM): 1.63 and 1.61 and 1.64
Response (GEM 30 nM + ATRi 30 nM): 1.75 and 1.65 and 1.57
Response (GEM 100 nM + ATRi 3 nM): 1.68 and 1.66 and 1.64
Response (GEM 100 nM + ATRi 10 nM): 1.57 and 1.53 and 1.56
Response (GEM 100 nM + ATRi 30 nM): 1.53 and 1.59 and 1.47
Response (GEM 300 nM + ATRi 3 nM): 1.57 and 1.60 and 1.54
Response (GEM 300 nM + ATRi 10 nM): 1.52 and 1.50
Response (GEM 300 nM + ATRi 30 nM): 1.48 and 1.44 and 1.43
Response (GEM 1000 nM + ATRi 3 nM): 1.57 and 1.62
Response (GEM 1000 nM + ATRi 10 nM): 1.40 and 1.55 and 1.43
Response (GEM 1000 nM + ATRi 30 nM): 1.36 and 1.45 and 1.40
Response (GEM 3000 nM + ATRi 3 nM): 1.36 and 1.58 and 1.49
Response (GEM 3000 nM + ATRi 10 nM): 1.38 and 1.44 and 1.37
Response (GEM 3000 nM + ATRi 30 nM): 1.32 and 1.42 and 1.36
AsPC-1 viability (ratio) [5]: 0.9 ratio
AsPC-1 viability mean (ratio) [5]: 0.59 ratio
Raw data (confluence at 72 h/confluence at 0 h) [5]: 2.89
AsPC-1 viability (ratio) [6]: 1.01 ratio
AsPC-1 viability mean (ratio) [6]: 0.99 ratio
Raw data (confluence at 72 h/confluence at 0 h) [6]: 3.24
AsPC-1 viability (ratio) [7]: 0.95 ratio
AsPC-1 viability mean (ratio) [7]: 0.48 ratio
Raw data (confluence at 72 h/confluence at 0 h) [7]: 3.04
AsPC-1 viability (ratio) [8]: 0.63 ratio
AsPC-1 viability mean (ratio) [8]: 0.45 ratio
Raw data (confluence at 72 h/confluence at 0 h) [8]: 2.03
AsPC-1 viability (ratio) [9]: 0.44 ratio
AsPC-1 viability mean (ratio) [9]: 0.4 ratio
Raw data (confluence at 72 h/confluence at 0 h) [9]: 1.4
AsPC-1 viability (ratio) [10]: 0.37 ratio
AsPC-1 viability mean (ratio) [10]: 0.54 ratio
Raw data (confluence at 72 h/confluence at 0 h) [10]: 1.19
AsPC-1 viability (ratio) [11]: 0.33 ratio
AsPC-1 viability mean (ratio) [11]: 0.49 ratio
Raw data (confluence at 72 h/confluence at 0 h) [11]: 1.04
AsPC-1 viability (ratio) [12]: 0.27 ratio
AsPC-1 viability mean (ratio) [12]: 0.45 ratio
Raw data (confluence at 72 h/confluence at 0 h) [12]: 0.87
AsPC-1 viability (ratio) [13]: 1.01 ratio
AsPC-1 viability mean (ratio) [13]: 0.6 ratio
Raw data (confluence at 72 h/confluence at 0 h) [13]: 4.15
AsPC-1 viability (ratio) [14]: 1 ratio
AsPC-1 viability mean (ratio) [14]: 1.08 ratio
Raw data (confluence at 72 h/confluence at 0 h) [14]: 4.13
AsPC-1 viability (ratio) [15]: 0.94 ratio
AsPC-1 viability mean (ratio) [15]: 0.49 ratio
Raw data (confluence at 72 h/confluence at 0 h) [15]: 3.88
AsPC-1 viability (ratio) [16]: 0.73 ratio
AsPC-1 viability mean (ratio) [16]: 0.44 ratio
Raw data (confluence at 72 h/confluence at 0 h) [16]: 3.03
AsPC-1 viability (ratio) [17]: 0.38 ratio
AsPC-1 viability mean (ratio) [17]: 0.4 ratio
Raw data (confluence at 72 h/confluence at 0 h) [17]: 1.58
AsPC-1 viability (ratio) [18]: 0.31 ratio
AsPC-1 viability mean (ratio) [18]: 0.53 ratio
Raw data (confluence at 72 h/confluence at 0 h) [18]: 1.27
AsPC-1 viability (ratio) [19]: 0.28 ratio
AsPC-1 viability mean (ratio) [19]: 0.92 ratio
Raw data (confluence at 72 h/confluence at 0 h) [19]: 1.17
AsPC-1 viability (ratio) [20]: 0.29 ratio
AsPC-1 viability mean (ratio) [20]: 0.47 ratio
Raw data (confluence at 72 h/confluence at 0 h) [20]: 1.19
AsPC-1 viability (ratio) [21]: 1.02 ratio
AsPC-1 viability mean (ratio) [21]: 0.58 ratio
Raw data (confluence at 72 h/confluence at 0 h) [21]: 4.1
AsPC-1 viability (ratio) [22]: 0.97 ratio
AsPC-1 viability mean (ratio) [22]: 0.53 ratio
Raw data (confluence at 72 h/confluence at 0 h) [22]: 3.9
AsPC-1 viability (ratio) [23]: 0.94 ratio
AsPC-1 viability mean (ratio) [23]: 0.35 ratio
Raw data (confluence at 72 h/confluence at 0 h) [23]: 3.77
AsPC-1 viability (ratio) [24]: 0.8 ratio
AsPC-1 viability mean (ratio) [24]: 0.35 ratio
Raw data (confluence at 72 h/confluence at 0 h) [24]: 3.2
AsPC-1 viability (ratio) [25]: 0.41 ratio
AsPC-1 viability mean (ratio) [25]: 0.34 ratio
Raw data (confluence at 72 h/confluence at 0 h) [25]: 1.63
AsPC-1 viability (ratio) [26]: 0.33 ratio
AsPC-1 viability mean (ratio) [26]: 0.47 ratio
Raw data (confluence at 72 h/confluence at 0 h) [26]: 1.34
AsPC-1 viability (ratio) [27]: 0.29 ratio
AsPC-1 viability mean (ratio) [27]: 0.35 ratio
Raw data (confluence at 72 h/confluence at 0 h) [27]: 1.18
AsPC-1 viability (ratio) [28]: 0.25 ratio
AsPC-1 viability mean (ratio) [28]: 0.34 ratio
Raw data (confluence at 72 h/confluence at 0 h) [28]: 1
EC50 (AsPC1, Experiment ATRi (ATR inhibitor alone), single replicates R1-R3): 107 nM
EC50 (read-out: EC50 (cell growth), ATR inhibitor as single agent): 128 nM
EC50 (read-out: EC50 mean [nM], AsPC1, Experiment ATRi (ATR inhibitor alone), mean of replicates): 128 nM
EC50 (read-out: pEC50, AsPC1 (converted), Experiment ATRi (ATR inhibitor alone), single replicates R1-R3): 107 nM

— article PMC11876601 (Molecular Systems Biology, 2025)
